From the supplement of paper PMC10307832

Assays:
Experiment in all cases: relative viability (nuclei count vs DMSO), 5 days (fraction); higher = more cells survive
[1] = compound: Cn1cc(-c2cnn3c(N)c(Br)c([C@@H]4CCCNC4)nc23)cn1 + Nc1nc2[nH]cc(CCc3ccc(C(=O)N[C@@H](CCC(=O)O)C(=O)O)cc3)c2c(=O)[nH]1 [Pemetrexed] (partner 0.2 µM)
Outline: (§1)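 Lung cancer cell lines in 1536-well plates got either a single drug or a fixed anchor-drug dose together with five library-drug doses (not always all listed) in √10 steps, by pin tool, on the day after seeding. Nuclei were counted after 5 days, and relative viability is the treated-to-vehicle ratio of nuclei counts. Values are medians of duplicate plates.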

[2] = compound: Cn1cc(-c2cnn3c(N)c(Br)c([C@@H]4CCCNC4)nc23)cn1 + NC(=O)Nc1cc(-c2cccc(F)c2)sc1C(=O)N[C@H]1CCCNC1 [AZD7762] (partner 0.2 µM)
Outline: as §1

[3] = compound: Cn1cc(-c2cnn3c(N)c(Br)c([C@@H]4CCCNC4)nc23)cn1 + COc1cc2c(Oc3ccc(NC(=O)C4(C(=O)Nc5ccc(F)cc5)CC4)cc3F)ccnc2cc1OCCCN1CCOCC1 [Foretinib] (partner 0.25 µM)
Outline: as §1

[4] = compound: Cn1cc(-c2cnn3c(N)c(Br)c([C@@H]4CCCNC4)nc23)cn1 + COc1cccc2cc(-c3nc([C@H]4CC[C@H](C(=O)O)CC4)n4ncnc(N)c34)[nH]c12 [OSI-027] (partner 0.5 µM)
Outline: as §1

| Cell Line | relative viability ([1]; first compound 0.05 µM) | relative viability ([1]; first compound 0.1581 µM) | relative viability ([1]; first compound 0.5 µM) | relative viability ([1]; first compound 1.581 µM) | relative viability ([1]; first compound 5 µM) | relative viability ([2]; first compound 0.05 µM) | relative viability ([2]; first compound 0.1581 µM) | relative viability ([2]; first compound 0.5 µM) | relative viability ([2]; first compound 1.581 µM) | relative viability ([2]; first compound 5 µM) | relative viability ([3]; first compound 0.05 µM) | relative viability ([3]; first compound 0.1581 µM) | relative viability ([3]; first compound 0.5 µM) | relative viability ([3]; first compound 1.581 µM) | relative viability ([3]; first compound 5 µM) | relative viability ([4]; first compound 0.05 µM) | relative viability ([4]; first compound 0.1581 µM) | relative viability ([4]; first compound 0.5 µM) | relative viability ([4]; first compound 1.581 µM) | relative viability ([4]; first compound 5 µM) |
| --- | --- | --- | --- | --- | --- | --- | --- | --- | --- | --- | --- | --- | --- | --- | --- | --- | --- | --- | --- | --- |
| A-427 | 0.938 | 0.99 | 1.03 | 0.837 | 0.46 | 0.72 | 0.569 | 0.566 | 0.502 | 0.344 | 1.05 | 1.11 | 1.01 | 1.09 | 0.712 | 0.495 | 0.474 | 0.453 | 0.357 | 0.31 |
| H3255 | 0.537 | 0.536 | 0.56 | 0.483 | 0.461 | 0.978 | 0.896 | 1.05 | 0.746 | 0.527 | 0.843 | 0.998 | 0.998 | 0.971 | 0.83 | 0.744 | 0.523 | 0.601 | 0.584 | 0.481 |
| NCI-H1734 | 0.411 | 0.384 | 0.347 | 0.307 | 0.265 | 0.531 | 0.572 | 0.48 | 0.469 | 0.474 | 0.918 | 1.01 | 0.908 | 0.799 | 0.694 | 0.59 | 0.581 | 0.563 | 0.54 | 0.362 |
| NCI-H1993 | 0.572 | 0.595 | 0.693 | 0.482 | 0.575 | 0.642 | 0.84 | 0.616 | 0.733 | 0.664 | 0.747 | 0.806 | 0.483 | 0.667 | 0.657 | 0.603 | 0.551 | 0.389 | 0.55 | 0.54 |
| NCI-H1437 | 0.294 | 0.226 | 0.248 | 0.172 | 0.194 | 1.11 | 1.18 | 1.08 | 1.01 | 0.889 | 1.24 | 1.4 | 1.41 | 1.32 | 1.19 | 0.826 | 1.11 | 0.954 | 0.803 | 0.733 |
| 201T | 0.362 | 0.327 | 0.315 | 0.264 | 0.294 | 0.597 | 0.618 | 0.661 | 0.506 | 0.498 | 0.999 | 0.952 | 1.26 | 0.554 | 0.265 | 0.777 | – | 0.656 | 0.532 | 0.241 |
| NCI-H358 | 0.177 | 0.164 | 0.162 | 0.166 | 0.129 | 0.417 | – | 0.447 | 0.38 | 0.36 | 0.685 | 0.768 | 0.654 | 0.59 | 0.628 | 0.808 | 0.787 | 0.56 | 0.616 | 0.743 |
| ChaGo-K-1 | 0.259 | 0.248 | 0.273 | 0.28 | 0.247 | 0.843 | 0.801 | 0.866 | 0.761 | 0.755 | 0.937 | 0.934 | 0.873 | 0.888 | 0.78 | 0.557 | 0.638 | 0.61 | 0.535 | 0.642 |
| LOU-NH91 | 0.398 | 0.289 | 0.254 | 0.25 | 0.64 | 0.373 | 0.744 | 0.761 | 0.727 | 0.642 | 0.928 | 0.879 | 0.91 | 0.926 | 0.781 | 0.752 | 0.711 | 0.684 | 0.727 | 0.701 |
| HOP-62 | 0.309 | 0.252 | 0.307 | 0.22 | 0.203 | 0.526 | 1.06 | 0.622 | 0.534 | 0.271 | 1.17 | 1.16 | 1.06 | 1 | 0.985 | 0.831 | 1.08 | 0.825 | 0.555 | 0.562 |
| NCI-H1915 | 0.545 | 0.435 | 0.422 | 0.372 | 0.358 | 0.666 | 0.67 | 0.718 | 0.69 | 0.709 | 1.18 | 1.15 | 1.09 | 1.15 | 1.09 | 0.646 | 0.631 | 0.566 | 0.543 | 0.561 |
| NCI-H3122 | 0.196 | 0.169 | 0.158 | 0.147 | 0.164 | 0.981 | 1.07 | 1 | 0.883 | 1.16 | 0.977 | 1.02 | 0.92 | 0.992 | 0.977 | 1.26 | 1.06 | 0.987 | 0.543 | 0.929 |
| NCI-H1651 | 0.549 | 0.406 | 0.559 | 0.32 | 0.198 | 0.436 | 0.407 | 0.387 | 0.378 | 0.219 | 0.828 | 1 | 0.887 | 0.496 | 0.213 | 0.653 | 0.787 | 0.618 | 0.453 | 0.242 |
| NCI-H838 | 0.229 | 0.168 | 0.175 | 0.17 | 0.151 | 0.991 | 0.92 | 1 | 0.879 | 0.84 | 1.1 | 1.2 | 1.01 | 1.11 | 0.965 | 0.386 | 0.416 | 0.371 | 0.367 | 0.338 |
| NCI-H596 | 0.481 | 0.462 | 0.534 | 0.371 | 0.326 | 1.13 | 1.06 | 1.06 | 1.01 | 1.1 | 0.871 | 0.797 | 0.778 | 0.83 | 0.674 | 0.833 | 0.87 | 0.643 | 0.654 | 0.719 |
| NCI-H441 | 0.261 | 0.283 | 0.254 | 0.277 | 0.25 | 1.27 | 1.32 | 1.05 | 1.1 | 0.956 | 0.99 | 1.38 | 1.13 | 0.957 | 0.725 | 0.614 | 0.814 | 0.821 | 0.565 | 0.609 |
| NCI-H650 | 0.893 | 0.93 | 0.92 | 0.919 | 0.63 | 0.954 | 0.923 | 1.1 | 1.04 | 0.928 | 1.14 | 1.03 | 1.02 | 1 | 0.881 | 0.571 | 0.503 | 0.54 | 0.476 | 0.485 |
| NCI-H1355 | 0.978 | 1.16 | 1.11 | 1.08 | 0.88 | 0.718 | 0.846 | 0.672 | 0.623 | 0.458 | 1.05 | 1.21 | 0.967 | 0.89 | 0.955 | 0.442 | 0.469 | 0.416 | 0.372 | 0.328 |
| NCI-H2347 | 0.408 | 0.394 | 0.418 | 0.502 | 0.338 | 0.77 | 0.635 | 0.76 | 0.65 | 0.532 | 0.789 | 0.877 | 0.815 | 0.593 | 0.724 | 0.418 | 0.594 | 0.291 | 0.377 | 0.326 |
| LCLC-97TM1 | 0.172 | 0.185 | 0.189 | 0.171 | 0.126 | 0.296 | 0.367 | 0.264 | 0.217 | 0.222 | 0.862 | 1 | 0.93 | 0.909 | 0.956 | 0.459 | 0.558 | 0.545 | 0.391 | 0.487 |
| EMC-BAC-2 | 0.478 | 0.386 | 0.399 | 0.433 | 0.462 | 1.05 | 1.26 | 1.08 | 1.04 | 0.821 | 1 | 1.11 | 1.02 | 0.977 | 0.926 | 0.368 | 0.367 | 0.408 | 0.37 | 0.355 |
| NCI-H1975 | 0.304 | 0.25 | 0.249 | 0.261 | 0.189 | 0.752 | 0.718 | 0.72 | 0.664 | 0.571 | 0.965 | 0.995 | 0.738 | 0.807 | 0.884 | 0.895 | 0.72 | 0.706 | 0.554 | 0.654 |
| BEN | 0.763 | 0.825 | 0.719 | 0.708 | 0.616 | 0.659 | 0.69 | 0.688 | 0.667 | 0.533 | 0.689 | 0.535 | 0.563 | 0.763 | 0.514 | 0.481 | 0.288 | 0.251 | 0.572 | 0.295 |
| NCI-H23 | 0.582 | 0.539 | 0.504 | 0.275 | 0.19 | 0.253 | 0.273 | 0.25 | 0.162 | 0.123 | 1.02 | 0.987 | 0.907 | 0.615 | 0.53 | 0.589 | 0.549 | 0.506 | 0.491 | 0.268 |
| CAL-12T | 1.45 | 0.778 | 0.892 | 0.623 | 0.393 | 0.541 | 0.531 | 0.538 | 0.494 | 0.239 | 1.17 | 1.08 | 0.965 | 0.789 | 0.228 | 0.554 | 0.841 | 0.682 | 0.266 | 0.121 |
| EPLC-272H | 0.268 | 0.186 | 0.139 | 0.106 | 0.098 | 0.13 | 0.195 | 0.179 | 0.17 | 0.178 | 0.794 | 0.723 | 0.603 | 0.514 | 0.25 | 0.256 | 0.309 | 0.359 | 0.224 | 0.166 |
| LCLC-103H | 0.539 | 0.463 | 0.482 | 0.428 | 0.298 | 0.834 | 0.914 | 0.728 | 0.738 | 0.685 | 0.72 | 0.848 | 0.746 | 0.674 | 0.657 | 0.433 | 0.43 | 0.516 | 0.405 | 0.389 |
